Results on 1 molecule are retold here after publication PMC9877316, “Identification of a novel P2X7 antagonist using structure-based virtual screening” (Frontiers in Pharmacology, 2023).

This experiment has as its target T1, rat P2X7 (Rattus norvegicus, UniProt Q64663).
T1 construct: expressed in transfected cells; host or cells: HEK-293 cells stably expressing rat P2X7-GFP (patch clamp)
T1 sequence (Q64663 1-595): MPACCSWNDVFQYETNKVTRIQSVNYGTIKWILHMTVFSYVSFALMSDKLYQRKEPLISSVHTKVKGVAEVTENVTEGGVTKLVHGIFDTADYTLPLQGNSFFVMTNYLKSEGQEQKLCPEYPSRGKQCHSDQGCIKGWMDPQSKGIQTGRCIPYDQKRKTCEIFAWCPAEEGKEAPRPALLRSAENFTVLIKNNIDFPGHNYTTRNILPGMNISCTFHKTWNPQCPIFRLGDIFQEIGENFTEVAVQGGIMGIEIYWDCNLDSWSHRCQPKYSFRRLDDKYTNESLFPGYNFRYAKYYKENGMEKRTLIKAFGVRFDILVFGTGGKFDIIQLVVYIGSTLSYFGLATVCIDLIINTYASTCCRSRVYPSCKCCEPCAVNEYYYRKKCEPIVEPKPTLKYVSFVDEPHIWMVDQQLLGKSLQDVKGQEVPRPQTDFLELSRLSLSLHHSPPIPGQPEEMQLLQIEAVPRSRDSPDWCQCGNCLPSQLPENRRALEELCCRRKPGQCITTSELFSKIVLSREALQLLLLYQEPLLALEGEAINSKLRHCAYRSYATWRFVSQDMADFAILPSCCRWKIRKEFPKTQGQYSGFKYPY
In words: ATP/BzATP-induced YoPro-1 dye uptake assay, rat P2X7. The class given is cell-based. On the procedure:
1321N1 astrocytoma cells and HEK-293 cells were cultured (at 37°C, 5% CO2) in Dulbecco’s modified Eagle’s medium (DMEM/F-12 with Glutamax) supplemented with 10% foetal bovine serum (FBS) and 200 unit/ml of penicillin and streptomycin antibiotics (Fisher Scientific). For stable cell line generation, cells were transfected using FuGene HD Transfection Reagent (Promega) according to the manufacturer’s protocol with plasmids encoding either human P2X4 with a C-terminal (His)10 tag ([Young et al., 2008]), human P2X7 with a C-terminal EYMPME tag (kindly provided by R.A. North) or rat P2X7 C-terminally tagged with a GFP-(His)8 tag, generated by PCR amplification of the coding sequence for rat P2X7 from a pcDNA-based expression vector ([Young et al., 2007]), adding XhoI and EcoRI sites at the 5′- and 3′- ends respectively, followed by restriction digestion and ligation into a zebrafish P2X4-GFP expression vector based on pEGFP-C1 (kindly provided by Eric Gouaux; [Kawate and Gouaux, 2006]) to replace the zebrafish P2X4 coding region with rP2X7. Transfected clones were grown in DMEM/F-12 with Glutamax medium supplemented with G-418 (Geneticin®, Fisher Scientific), 600 μg/ml and 150 μg/ml during selection and maintenance respectively. […] HEK-293 cells stably expressing human P2X7 ([Adinolfi et al., 2010]) were a kind gift from Elena Adinolfi.
Cells were plated as for the calcium influx assay (Section 2.4). Culture medium was replaced with low divalent cation containing extracellular solution (ECS-LD; 147 mM NaCl, 10 mM HEPES, 13 mM Glucose, .2 mM CaCl2, 2 mM KCl. pH = 7.4 in MilliQ water) and 5 μM Yopro-1. […] The baseline was measured with a BMG Clariostar instrument for 5–10 cycles, followed by addition of ATP (or BzATP) and recording for at least 30 further cycles (approx. 1 min per data point). The collected responses were normalized to the first data-point recorded after ATP addition. The initial gradient of the dye uptake curve was used to calculate the response to ATP.
In order to confirm GP-25 as a competitive (orthosteric) antagonist, BzATP concentration-response curves (ranging between 300 μM and .03 µM) were constructed for rat P2X7-GFP in the YoPro-1 uptake assay in the presence of increasing concentrations of GP-25 (Figure 3A).

`COC(=O)C1=C(C)NC2=C(C(=O)c3ccccc32)C1c1cc(Br)ccc1OCC(=O)O` (stereo not shown) [Compound 9, (4-bromo-2-(3-(methoxycarbonyl)-2-methyl-5-oxo-4,5-dihydro-1H-indeno(1,2-b)pyridine-4-yl)phenoxy)acetic acid]: the Schild plot slope (BzATP concentration-response curves, rat P2X7-GFP, increasing GP-25 up to 100 µM) was 1.004 ± .2584. Besides, the “mode of antagonism (Schild analysis)” value (BzATP, rat P2X7-GFP, YoPro-1) is listed as “competitive (orthosteric) antagonism”. Also, it took 24.4 µM to reach half-maximal inhibition (YoPro-1 uptake, 300 µM ATP) (IC50). Moreover, where the note is “approx. % inhibition at 30 μM compound, 300 µM ATP, YoPro-1 uptake, rat P2X7-GFP, read-out: % Inhibition at rP2X7”, the inhibition at 30 µM is 47%.

As a reminder, the IC50 is the point on the concentration scale where inhibition reaches its midpoint. Read a low IC50 as inhibition by little substance. As usually defined, the inhibition is how much of the control response was suppressed.
